Measured values reported in patent US5958770A, “Glycoalkaloids” (priority 1990, dated 1999).
“Also recorded” adds a separate entry of the source. Read-outs that look alike come from different tables or passages of the source.

What was measured:
in vitro [1] = conditions: human, unstimulated lymphocytes
Protocol: (§5) This was cultured for 48 hours and pulsed with tritiated thymidine for a further 24 hours. In the inhibition studies, the cell concentration was 8×10^5 /ml.
(§6) All cells were harvested by vacuum filtration by washing in 250 μl of each of phosphate buffered saline, 5% trichloroacetic acid, 1.0M NaCl and 95% ethanol and subjected to β-scintillatian counting. Similarly, peripheral human blood lymphocytes were isolated and cultured 2×10^5 lymphocytes in CO2 1640TCM 10% HIFCS. Lymphocytes were stimulated with 20 μg/ml PHA, Con A or PWM, and cultured for 48 hrs followed by a 24 hr pulse. […] Cell concentrations were 8×10^4 /well total volume 250 μl. The dpm of the experimental replicates were expressed as a percentage of the mean value of the controls, and the mean value of the experimental replicates calculated.

in vitro [2] = conditions: human, pwm stimulated lymphocytes
human spermatozoa = assay: Immobilization of spermatozoa; type: cell-based; conditions: for effect on spermatozoa (words): solamargine/eosin, FIG. 5
Protocol: In order to observe any immobilization of spermatozoa, sperm (10×10^6 /ml) (50 μl) were placed on a microscope slide separated from 50 μl of solamargine (1 mg/ml) by 5 μl of eosin. A cover slip was then placed over the slide. […] This is a standard method known in the art. It was noted that sperm was not present on the side of the slide where the drop of solasodine glycosides was placed.

HeLa cells [3] = assay: Solamargine cytotoxicity in presence and absence of carbohydrates, HeLa cells; type: cell-based, human; conditions: Homo sapiens, HeLa, solamargine 2.4 μM/L, read-out: Percentage Survival
Protocol: (§1) A mixture of solasodine glycosides (BEC), of which the active compound is solamargine and from which the aglycone solasodine is derived was prepared for use in cytotoxicity assays as determined by the uptake of tritiated thymidine. Inhibition studies were carried out with lactose, lactosyl-albumin, galactose or rhamnose (Sigma Chemical Co., USA). All experimental replicates were related to their own controls. Total volume of replicates was 250 μl (carbohydrates added in 50 μl tissue culture media+10% fetal calf serum), and the cell concentrations were 8×10^4 /ml.

[4] = test system: ovarian cancer cells, HeLa cells, lymphoblastoid cells, fibroblasts; assay: Cytotoxicity / inhibition of tritiated thymidine uptake, cell types taken together
Protocol: (§2) The inhibition of cell replication by steroid alkaloids is determined by the inhibition of the incorporation of ^3 H thymidine into DNA. Using this technique, it should be possible to monitor any preferential inhibition of uptake of ^3 H thymidine by cancer cells.
(§3) Cells were maintained as monolayers in RPM1-1640 tissue culture media (Grant Island Biological Co) buffered with N-2-hydroxy-ethylpiperazine-N-2-ethanesulphonic acid pH 7.5 and supplemented with 10% heat inactivated fetal calf serum (FCS): (i) a human ovarian cancer cell line (C180-135), (ii) HeLa cells, (iii) human fibroblasts, and (iv) as a cell suspension of lymphoblastoid cells (EBV transformed lymphocytes). Monolayers were trypsinized to form a cell suspension. […] Cell concentration was adjusted to 2×10^5 cells/ml, and 2×10^4 cells were added in replicates of 10 to the wells (1×10^5 /ml well) of HA microtitre plates (Millipore Corp., USA). The cells were preincubated at 37.5° C. for 7 hours prior to the addition of 50 μl of the cytotoxic drug followed by the addition of 50 μl 5 uCi/ml of ^3 H thymidine, in the same tissue culture media 21 hours later. Incubation was continued for a total of 24 hours, which includes the pre-incubation time.
(§4) Appropriate DMSO cytotoxicity studies were also conducted. Solasodine glycosides were supplied as a mixture (BEC), and as separate components, solamargine, solasonine, a mixture of di- and mono-glycosides and the aglycone solasodine. All cytotoxic drugs were further diluted with HIFCS/TCM before testing. 5×10^4 ovarian cancer cells (200 μl/chamber of a chamber of microscope slide (Lab Tek Miles Scientific) were used. Controls received 50 μl HIFCS/TCM and experimental chambers 50 μl of solasodine glycosides (BEC) 1.5-3.8 μM/L after 7 hrs preincubation, and incubated for a further 3 hrs. Similarly, the cells were treated with the aglycone solasodine 19.4-96.8 μM/L. The cells were fixed and examined by the Papanicolaou method.

in vitro [5] = conditions: human, con a stimulated lymphocytes
Protocol: as §5, §6

unstimulated lymphocytes = assay: Inhibition of tritiated thymidine uptake, unstimulated lymphocytes; conditions: unstimulated lymphocytes
Protocol: as §5, §6

ovarian cancer cells [6] = assay: Solamargine cytotoxicity in presence and absence of carbohydrates, ovarian cancer cells; type: cell-based, human; conditions: Homo sapiens, OvCa, solamargine 1.54 μM/L, read-out: Percentage Survival
Protocol: as §1

ovarian cancer cells [7] = assay: Morphological examination of ovarian cancer cells (Papanicolaou); type: cell-based, human; conditions: 17 hours; FIG. 4B
Protocol: Appropriate DMSO cytotoxicity studies were also conducted.
A human ovarian cancer cell line (C180-135) was grown as mono layers and trypsinized to form a cell suspension. The cells were adjusted to a concentration of 1×10^5 /ml (viability ≥95%) and 200 μl placed in each of the eight chambers of microscope chamber slides (Lab Tek, Miles Scientific). After 21 hours preincubation at 37.5° C., 50 μl of supplemented tissue culture media were added to the control chambers. To the other chambers were added 50 μl of solasodine glycosides (BEC) to give final concentrations of 3, 4.8, 6.7, 7.7, 9.6, 11.1 and 15.3 μM/L. Similarly, to a separate chamber slide was added the aglycone solasodine (19.4-96.8 μM/L). The slides were incubated at 37.5° C. for a further 3 hours, and the cells fixed in 95% V/V alcohol and stained by the Papanicolaou method. Two other chamber slides were prepared in a similar manner, but the solasodine glycosides and the aglycone were added at a final concentration of 0.77, 1.5, 2.3, 3.1 and 3.8 μM/L after 7 hours preincubation, and they incubated for a further 17 hours.

human fibroblasts = assay: cells; conditions: for TR50 (thymidine ratio relative to ovarian cancer cells): FB / OvCa
Protocol: as §2, §3, §4

HeLa cells [8] = assay: cells
Protocol: as §2, §3, §4

[9] = test system: lymphoblastoid cells (EBV transformed lymphocytes); assay: cells; conditions: for TR50 (thymidine ratio relative to ovarian cancer cells): LCL / OvCa
Protocol: as §2, §3, §4

lymphoblastoid cells = assay: Solamargine cytotoxicity in presence and absence of carbohydrates, lymphoblastoid cells; type: cell-based; conditions: Homo sapiens, Lymphoblastoid cell, LCL, solamargine 3.1 μM/L, read-out: Percentage Survival
Protocol: as §1

[10] = test system: PHA stimulated lymphocytes; assay: Inhibition of tritiated thymidine uptake, PHA stimulated lymphocytes; conditions: PHA stimulated lymphocytes
Protocol: as §5, §6

For `C[C@@H]1CC[C@@]2(NC1)O[C@H]1C[C@H]3[C@@H]4CC=C5C[C@@H](O[C@@H]6O[C@H](CO)[C@@H](O[C@@H]7O[C@@H](C)[C@H](O)[C@@H](O)[C@H]7O)[C@H](O)[C@H]6O[C@@H]6O[C@@H](C)[C@H](O)[C@@H](O)[C@H]6O)CC[C@]5(C)[C@H]4CC[C@]3(C)[C@H]1[C@@H]2C` [Solamargine, solamargine], the viability at 11.5 µM (in vitro [1]) was 76 ± 9.6%, the viability at 11.5 µM (in vitro [2]) was 93 ± 9.4% and the “time to immobilization of sperm” value (human spermatozoa; solamargine 1 mg/ml) was ≤ 15 s. For the same molecule, the “effect on spermatozoa (words)” value (human spermatozoa) was “inhibit human spermatozoal motility”, the “effect on spermatozoa (words)” value (human spermatozoa; listed as solamargine) was “dead intact spermatozoa” and the viability at 2.4 µM (HeLa cells [3]; 1.1 μM/L galactose) was 24 ± 2.2%. The viability at 2.4 µM (HeLa cells [3]; 1.1 μM/L lactose) was 24 ± 2.9%, the viability at 2.4 µM (HeLa cells [3]; 1.1 μM/L rhamnose) was 26 ± 2.1% and the viability at 2.4 µM (HeLa cells [3]; no carbohydrate (first line)) was 25 ± 2.6%. For the same molecule, the viability at 2.4 µM (HeLa cells [3]; no carbohydrate (second line, with rhamnose)) was 24 ± 4%, the “preferential cytotoxicity for cancer cells” value ([4]; cancer cells relative to other cell types) was “preferentially inhibits the uptake of tritiated thymidine by cancer cells” and the “LD50 for ovarian cancer cell line and HeLa cells less than that for lymphoblastoid cells and fibroblasts” value ([4]; fold lower) was 1.5-3.3 times. For the same molecule, the viability at 11.5 µM (in vitro [5]) was 79 ± 4%, the “cytotoxicity (words)” value (unstimulated lymphocytes) was “limited effect; also recorded: limited cytotoxicity” and the viability at 1.54 µM (ovarian cancer cells [6]; 1.1 μM/L galactose, ** p = 0.001) was 79%. It also gave a viability at 1.54 µM (ovarian cancer cells [6]; 1.1 μM/L lactose, * p < 0.02 > 0.01) of 75%, a viability at 1.54 µM (ovarian cancer cells [6]; 1.1 μM/L rhamnose) of 67 ± 7.5% and a viability at 1.54 µM (ovarian cancer cells [6]; no carbohydrate) of 62 ± 7%. The “morphological effect on ovarian cancer cells” value (ovarian cancer cells [7]) was “absence of cancer cells upon cytological examination”, the “TR50 (thymidine ratio relative to ovarian cancer cells)” value (human fibroblasts; listed as Solam) was 2.3 and the “TR50 (thymidine ratio relative to ovarian cancer cells)” value (human fibroblasts; listed as solamargine) was “greater than 2”. The IC50 (human fibroblasts; Homo sapiens, Fibroblast, read-out: LD50 (dose to inhibit 50% tritiated thymidine uptake)) was 3.65 µM, the viability at 11.5 µM (human fibroblasts; Homo sapiens, Fibroblast, read-out: Percentage Cell Survival) was 23 ± 1.7% and the “TR50 (thymidine ratio relative to ovarian cancer cells)” value (HeLa cells [8]; HeLa / OvCa) was 1.6. The IC50 (HeLa cells [8]; Homo sapiens, HeLa, read-out: LD50 (dose to inhibit 50% tritiated thymidine uptake)) was 2.5 µM, the viability at 11.5 µM (HeLa cells [8]; Homo sapiens, HeLa, read-out: Percentage Cell Survival) was 2.6 ± 0.5% and the viability at 11.5 µM ([9]; Homo sapiens, Lymphoblastoid cell, read-out: Percentage Cell Survival) was 35 ± 4.2%. The “TR50 (thymidine ratio relative to ovarian cancer cells)” value ([9]; listed as Solam) was 2.5, the “TR50 (thymidine ratio relative to ovarian cancer cells)” value ([9]; listed as solamargine) was “greater than 2” and the IC50 ([9]; human gammaherpesvirus 4, LCL, read-out: LD50 (dose to inhibit 50% tritiated thymidine uptake)) was 3.95 µM. For the same molecule, the viability at 3.1 µM (lymphoblastoid cells; 1.1 μM/L galactose, *** p < 0.001) was 42%, the viability at 3.1 µM (lymphoblastoid cells; 1.1 μM/L lactose, *** p < 0.001) was 47% and the viability at 3.1 µM (lymphoblastoid cells; 1.1 μM/L rhamnose) was 36 ± 4.5%. The viability at 3.1 µM (lymphoblastoid cells; no carbohydrate) was 34 ± 3% and the “cytotoxicity (words)” value [10] was “absence of cytotoxicity”.
